Laboratory results published in US8530455B2 (University of Medicine and Dentistry of New Jersey, priority 2009, dated 2013).

Legend:
plasma = test: GDL dose response on plasma clotting time; format: biochemical; conditions: GDL dose response curve in plasma
[1] = test system: human citrated whole blood (CWB); test: Whole blood clotting time after recalcification (Amelung KC4A Micro, or instrument not named); format: cell-based
Experimental: Clotting time of whole blood enables the contribution of both the cellular elements (leukocytes, red blood cells, platelets) and plasma (the liquid sustaining the cellular components) to be evaluated. The citrate anticoagulated sample is brought to 37° (body temperature) and calcium ion is added to initiate the coagulation cascade. Many instruments are available to determine the time between calcium addition and the formation of the blood clot (clotting time). The time for this complex phenomenon to occur can be shorter than normal (hypercoagulable), within the normal range, and longer than normal (hypocoagulable state). Some disease states are characterized by hypercoagulable clotting states and include coronary artery disease, some cancer, diabetes, multiple sclerosis, stroke etc. The hypocoagulable states include hemophilia, and patients receiving anticoagulant therapies.
(§1) Human citrated whole blood (CWB) samples were gently inverted several times to ensure homogeneity and stored on ice to prevent protein denaturation. Ten microliters of physiologic saline was added to 490 μl of CWB (control), gently mixed, and incubated at 37° C. for 10 minutes. Coagulation was initiated by transferring 300 μl of blood sample to a cuvette containing 32 μl of 0.1 M CaCl2. After gently mixing the sample and ensuring no air bubble formations in the cuvette, the whole blood clotting times were recorded on an Amelung KC4A Micro Coagulation Analyzer (Sigma Diagnostics, St. Louis, Mo., USA), a device that uses the relative displacement of a magnetic bead due to fibrin formation to determine the clotting time. In addition, the Sonoclot Coagulation Analyzer (Sienco, Wheat Ridge, Colo., USA), a miniviscometer that is sensitive to fibrin polymer formation and fibrinolysis, was also employed to determine the whole blood clotting time. Both clinical instruments are FDA approved and used to evaluate blood coagulation processes at 37° C.
(§2) Clotting time values obtained within each study were evaluated by repeated measures analysis of variance (ANOVA) followed by Tukey-Kramer multiple comparison tests. All statistical analyses were assessed using two-sided paired Student t tests and significance was defined as p<0.05.

[2] = no refrigeration required; cited from earlier work
[3] = test system: human citrated whole blood (CWB); test: Whole blood clotting time, Sonoclot Coagulation Analyzer; format: cell-based
Experimental: as §1, §2
In the previous experiments, the whole blood clotting times were measured using the Amelung KC4A Micro, an instrument approved by the FDA to measure blood coagulation processes. Another FDA approved instrument used to measure blood coagulation and fibrinolysis is the Sonoclot Coagulation Analyzer.

[4] = test system: red blood cells in anticoagulated human blood; test: Erythrocyte Sedimentation Rate (ESR) in vitro; format: cell-based; conditions: for ESR value: n=13
Text: When anticoagulated blood is allowed to remain undisturbed in a long thin tube, the erythrocytes (red blood cells) begin to settle. The rate these cells settle may be a biomarker of the immune system status of the donor's blood. Many chronic diseases and those which create increased morbidity and mortality show increases (larger distance of settling) in ESR than age-matched healthy individuals. The ESR can also monitor the effects of therapeutics or procedures on the patient.
The ESR is the distance red blood cells settle in anticoagulated blood in one hour (mm/hr). These test results are elevated in many diseases that affect the immune system (infections, arthritis, cancer, heart diseases).

citrated whole blood = test: Glucose-accelerated clotting time (Diagnostica Stago ST4 and Sonoclot); format: cell-based, human; conditions: for Glucose-accelerated clotting time: after 24 hours
Experimental: Citrated whole blood samples were obtained from the University Hospital's clinical laboratory with prior IRB approval. Samples were treated with different concentrations of glucose (6.0 mM, 9.0 mM, and 12.0 mM) to determine if a dose-response relationship existed between the glucose concentration and clotting time. Clotting times were then recorded using a Diagnostica Stago ST4 Coagulation Analyzer. […] The samples were incubated for 10 minutes prior to the addition of glucose (12.0 mM). After 24 hours, clotting times were recorded using a Diagnostica Stago ST4 and Sonoclot Coagulation Analyzer (FIG. 2). Results and Discussion

In the case of `O=C1O[C@H](CO)[C@@H](O)[C@H](O)[C@H]1O` [GDL, glucono-delta-lactone], the “anticoagulant effect in plasma” value (plasma) is reported as “a similar anticoagulant effect was observed”, the “Mean Clotting Times” value ([1]; 2 μg GDL per mL CWB, n=8, control 264.38 ± 24.17) is reported as 271.13 ± 24.83 s and the mean clotting time ([1]; 2.90 μg GDL/mL CWB, n=4, saline 254.08±27.37) is reported as 246.55±28.32. It also gave a mean clotting time ([1]; 23.00 μg GDL/mL CWB, n=4) of 307.90±16.82, a mean clotting time ([1]; 184.00 μg GDL/mL CWB, n=4) of 387.33±52.36 and a mean clotting time ([1]; 1.48 mg GDL/mL CWB, n=4) of 444.55±92.01. The “Mean Clotting Times” value ([1]; 11.8 mg GDL per mL CWB, n=16, control 252.25 ± 25.05) was 618.31 ± 71.81 s, the mean clotting time ([1]; 11.80 mg GDL/mL CWB, n=4) was 687.37±51.23 and the “Mean Clotting Times” value ([1]; 0.2% TF plus 11.8 mg GDL per mL CWB, n=16) was 418.44 ± 80.46 s. For the same molecule, the “Mean Clotting Times” value ([1]; 0.2 Unit LMWH (dalteparin sodium) plus 2 μg GDL per mL CWB, n=8) was 456.15 ± 47.45 s, the “Mean Clotting Times” value ([1]; 0.2 Unit UFH plus 2 μg GDL per mL CWB, n=8) was 572.51 ± 45.94 s and the “Mean Clotting Times” value ([1]; 0.3 Unit LMWH (enoxaparin sodium) plus 2.9 μg GDL per mL CWB, n=4) was 240.73 ± 29.58 s. For the same molecule, the “Mean Clotting Times” value ([1]; 0.3 Unit LMWH (enoxaparin sodium) plus 10 μg GDL per mL CWB, n=4) was 294.50 ± 46.16 s, the “Mean Clotting Times” value ([1]; 0.3 Unit LMWH (enoxaparin sodium) plus 23 μg GDL per mL CWB, n=4) was 336.28 ± 51.79 s and the “Mean Clotting Times” value ([1]; 0.3 Unit LMWH (enoxaparin sodium) plus 184 μg GDL per mL CWB, n=4) was 381.23 ± 61.83 s. For the same molecule, the “Mean Clotting Times” value ([1]; 0.3 Unit LMWH (enoxaparin sodium) plus 1.48 mg GDL per mL CWB, n=4) was 442.45 ± 63.38 s, the “Mean Clotting Times” value ([1]; 0.3 Unit LMWH (enoxaparin sodium) plus 11.8 mg GDL per mL CWB, n=4) was 542.88 ± 54.17 s and the “Mean Clotting Times” value ([1]; 0.3 Unit UFH plus 2.9 μg GDL per mL CWB, n=5) was 415.10 ± 101.63 s. For the same molecule, the “Mean Clotting Times” value ([1]; 0.3 Unit UFH plus 10 μg GDL per mL CWB, n=5) was 498.94 ± 81.24 s, the “Mean Clotting Times” value ([1]; 0.3 Unit UFH plus 23 μg GDL per mL CWB, n=5) was 675.34 ± 129.28 s and the “Mean Clotting Times” value ([1]; 0.3 Unit UFH plus 184 μg GDL per mL CWB, n=5) was 825.96 ± 160.74 s. For the same molecule, the “Mean Clotting Times” value ([1]; 0.3 Unit UFH plus 1.48 mg GDL per mL CWB, n=5) was 926.44 ± 192.03 s, the “Mean Clotting Times” value ([1]; 0.3 Unit UFH plus 11.8 mg GDL per mL CWB, n=5) was 1197.89 ± 114.32 s and the “mean clotting time” value ([1]; CWB + GDL, n=9 (GDL 3 mg/ml)) was 270 s. The “mean clotting time” value ([1]; CWB + TF + GDL, n=9 (GDL 3 mg/ml)) was 134 s, the “change of whole blood clotting time over GDL concentration range” value ([1]; GDL 0.016 mM-66.24 mM) was “increased about three fold” and the “clotting time versus control” value ([1]; GDL 3 mg/ml incubated in blood with bacterial endotoxin) was “significantly (p≦0.05) increase the clotting time”. It also gave a mean clotting time ([1]; GDL 4 mg/ml, after four days in the refrigerator (4°), control 177±17) of 342 ± 32 s, a mean clotting time ([1]; GDL 4 mg/ml, day 1, n=10, control 250±16) of 432 ± 16 s and a clotting time ([1]; Study III: 60 ng/ml histamine, 3 mg/ml GDL, n=8) of 305 ± 30 s. The clotting time ([1]; Study III: 60 ng/ml histamine, 4 mg/ml GDL, n=8) was 325 ± 53 s, the clotting time ([1]; Study IV: 1 μg/ml histamine added first, 1 mg/ml GDL, n=8) was 297 ± 113 s and the clotting time ([1]; Study IV: 1 μg/ml histamine added first, 2 mg/ml GDL, n=8) was 304 ± 121 s. The clotting time ([1]; blood containing protease 35 μg/ml plus GDL 4 mg/ml) was 154 ± 55 s, the clotting time ([1]; blood exposed to tissue factor plus GDL 3 mg/ml, TF alone 101) was 134 s and the anticoagulant effect ([1]; concentrations greater than 184 μg GDL per mL of blood, n=4, p<0.05) was “potent anticoagulant”. The clotting time ([1]; trypsin-treated blood plus GDL 6 mg/ml, n=4) was 83 ± 19 s, the “stability at room temperature” value [2] was “not susceptible to degradation at room temperatures” and the “Mean Clotting Times” value ([3]; 11.8 mg GDL per mL CWB, n=16, control 262.63 ± 49.67) was 631.75 ± 74.55 s. The “Mean Clotting Times” value ([3]; 0.2 Unit LMWH (dalteparin sodium) plus 11.8 mg GDL per mL CWB, n=16) was 844.94 ± 77.99 s, the “Mean Clotting Times” value ([3]; 0.2 Unit UFH plus 11.8 mg GDL per mL CWB, n=16) was 852.00 ± 80.72 s and the ESR value ([4]; 0.1 mg/ml GDL, control 20±13) was 18±14 mm/hr. For the same molecule, the ESR value ([4]; 3.0 mg/ml GDL) was 16±12 mm/hr, the ESR value ([4]; 6.0 mg/ml GDL) was 15±12 mm/hr and the ESR ([4]; GDL 1 mg/ml alone) was 9.6 mm. The “Methylcellulose (MC)-accelerated ESR” value ([4]; MC 0.1% plus GDL 1 mg/ml, N=8, p<0.05) was 34.6 mm, the ESR ([4]; MC + GDL (MC 0.1 mg/ml, GDL 1 mg/ml)) was 30.1 mm and the “effect of GDL on clotting time in the presence of excess glucose (FIG. 2)” value (citrated whole blood; GDL 3 mg/ml and 4 mg/ml, glucose 12.0 mM) was “prolonging clotting time even in the presence of excess glucose”. It also gave a Glucose-accelerated clotting time (citrated whole blood; glucose (12.0 mM) plus GDL 3 mg/ml) of 243 ± 70 s and a Glucose-accelerated clotting time (citrated whole blood; glucose (12.0 mM) plus GDL 4 mg/ml) of 334 ± 107 s.

`NCCc1c[nH]cn1` [histamine, reference compound] gave a clotting time ([1]; Study III: 60 ng/ml histamine, 0 mg/ml GDL, n=8, control 264±38) of 220 ± 39 s, a clotting time ([1]; Study IV: 1 μg/ml histamine, 0 mg/ml GDL, n=8, control 306±108) of 253 ± 136 s and a clotting time ([1]; histamine 20 ng/ml, n=8, control 264±80) of 257 ± 105 s. The clotting time ([1]; histamine 40 ng/ml, n=8) was 240 ± 42 s, the clotting time ([1]; histamine 60 ng/ml, n=8) was 235 ± 73 s and the clotting time ([1]; histamine 20 μg/ml, 10 minutes at 37°, n=9, control 300±72) was 252 ± 61 s. It also gave a clotting time ([1]; histamine 40 μg/ml, 10 minutes at 37°, n=9) of 230 ± 49 s and a clotting time ([1]; histamine 60 μg/ml, 10 minutes at 37°, n=9) of 205 ± 71 s.

In the case of “Protamine sulfate [PS, reference compound]”, the “Mean Clotting Times” value ([1]; 2 μg PS per mL CWB, n=8) is reported as 294.26 ± 22.92 s, the “Mean Clotting Times” value ([1]; 0.2 Unit LMWH (dalteparin sodium) plus 2 μg PS per mL CWB, n=8) is reported as 433.96 ± 56.96 s and the “Mean Clotting Times” value ([1]; 0.2 Unit UFH plus 2 μg PS per mL CWB, n=8) is reported as 464.71 ± 42.83 s.

With trypsin [reference compound] the clotting time ([1]; trypsin-treated blood, control 356±47) was 49 ± 14 s.

In the case of “unfractionated heparin sodium [UFH, reference compound]”, the “Mean Clotting Times” value ([1]; 0.2 Unit UFH per mL CWB, n=8) is reported as 648.54 ± 55.31 s, the “Mean Clotting Times” value ([1]; 0.3 Unit UFH per mL CWB, n=5, control 246.56 ± 36.06) is reported as 507.52 ± 85.26 s and the “Mean Clotting Times” value ([3]; 0.2 Unit UFH per mL CWB, n=16) is reported as 677.25 ± 55.33 s.

B1: TF: Tissue Factor, the initiator of the extrinsic clotting cascade (protein, UniProt P13726 33-295, looked up)
Tissue factor: SGTTNTVAAYNLTWKSTNFKTILEWEPKPVNQVYTVQISTKSGDWKSKCFYTTDTECDLTDEIVKDVKQTYLARVFSYPAGNVESTGSAGEPLYENSPEFTPYLETNLGQPTIQSFEQVGTKVNVTVEDERTLVRRNNTFLSLRDVFGKDLIYTLYYWKSSSSGKKTAKTNTNEFLIDVDKGENYCFSVQAVIPSRTVNRKSTDSPVECMGQEKGEFREIFYIIGAVVFVVIILVIILAISLHKCRKAGVGQSWKENSPLNVS
With B1 the “Mean Clotting Times” value ([1]; 0.2% TF, n=16) was 100.13 ± 23.10 s.
